What was measured:
ducksalad = assay: Test B flooded paddy test; assay type: in vivo, Heteranthera limosa; conditions: 1000 g ai/ha, scale 0 to 100 (0 no effect, 100 complete control)
How it was run: (§1)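 Paddy species grown to the 2-leaf stage under flooding; blackgrass sprayed postemergence at 2–18 cm (1- to 4-leaf stage). Plants kept in a greenhouse for 13 to 15 days, then visually rated against controls on 0 (no effect) to 100 (complete control).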

morningglory [1] = assay: Test B pre-/postemergence herbicide test; assay type: in vivo, Ipomoea coccinea; conditions: for Morningglory plant response rating: postemergence
How it was run: (§2)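 Test chemicals in a non-phytotoxic solvent mixture with surfactant were applied preemergence to seeded species and postemergence to plants 2-18 cm tall (1- to 4-leaf stage); rice and barnyardgrass were also tested in a flooded paddy at the 2-leaf stage. Visual rating versus controls after 13-15 days in greenhouse, scale 0 (no effect) to 100 (complete control).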

rice [2] = assay: Test B pre-/postemergence herbicide test; assay type: in vivo, Oryza sativa; conditions: 0 = no effect, 100 = complete control, preemergence
How it was run: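 Evaluation is visual, comparing treated with control plants on a scale where 0 means no effect and 100 means full control. Treatments were preemergence, or postemergence on seedlings 2–18 cm tall, and held 13–15 days in the greenhouse.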

barnyardgrass [3] = assay: Test B pre-/postemergence herbicide test; assay type: in vivo, Echinochloa crus-galli; conditions: for Barnyardgrass plant response rating: postemergence
How it was run: as §2

redroot pigweed = assay: Test A pre-/postemergence herbicide test; assay type: in vivo, Amaranthus retroflexus
How it was run: (§3)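 Sandy loam soil given preemergence directed spray; plants at 2 to 10 cm, one- to two-leaf stage, sprayed to runoff postemergence, compounds in non-phytotoxic solvent with surfactant. Injury rated visually versus untreated controls after about ten greenhouse days, 0 (no effect) to 100 (complete control); dash means not tested.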

wheat = assay: Test B postemergence herbicide test; assay type: in vivo, Triticum aestivum; set-up: key to Wheat plant response rating: 0 = no effect, 100 = complete control; conditions: postemergence
How it was run: (§4)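 Greenhouse test; postemergence application to plants at 1–4 leaves (2–18 cm); paddy species at 2 leaves; evaluated visually vs controls at 13–15 days; scale 0–100 (100 = complete control).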

velvetleaf [4] = assay: Test A pre-/postemergence herbicide test; assay type: in vivo, Abutilon theophrasti
How it was run: as §3

cocklebur = assay: Test B pre-/postemergence herbicide test; assay type: in vivo, Xanthium strumarium; conditions: for Cocklebur plant response rating: postemergence
How it was run: as §2

wild oat = assay: Test B postemergence herbicide test; assay type: in vivo, Avena fatua; conditions: postemergence
How it was run: as §4

large crabgrass [5] = assay: Test A pre-/postemergence herbicide test; assay type: in vivo, Digitaria sanguinalis
How it was run: as §3

blackgrass = assay: Test B postemergence herbicide test; assay type: in vivo, Alopecurus myosuroides; conditions: postemergence
How it was run: as §1

Surinam grass = assay: Test B pre-/postemergence herbicide test; assay type: in vivo, Urochloa decumbens; conditions: for Surinam Grass plant response rating: postemergence
How it was run: (§5)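 Flooded paddy rice and barnyardgrass were treated at the 2-leaf stage; upland plantings received compound either on sown seed or on 1- to 4-leaf seedlings. All were kept 13–15 days in a greenhouse and scored visually, 0–100, relative to untreated plants.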

large crabgrass [6] = assay: Test B pre-/postemergence herbicide test; assay type: in vivo, Digitaria sanguinalis; conditions: for Crabgrass, Large plant response rating: postemergence
How it was run: as §5

rice [7] = assay: Test B flooded paddy test; assay type: in vivo, Oryza sativa; conditions: 1000 g ai/ha, scale 0 to 100 (0 no effect, 100 complete control)
How it was run: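 After treating 2-leaf paddy plants or 2–18 cm postemergence plants (1 to 4 leaves) with formulated chemical, researchers kept them in a greenhouse for 13–15 days. Effects were judged visually versus controls: 0 indicates none, 100 total control.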

velvetleaf [8] = assay: Test B pre-/postemergence herbicide test; assay type: in vivo, Abutilon theophrasti; conditions: for Velvetleaf plant response rating: postemergence
How it was run: as §5

morningglory [9] = assay: Test A pre-/postemergence herbicide test; assay type: in vivo, Ipomoea spp.
How it was run: as §3

barnyardgrass [10] = assay: Test A pre-/postemergence herbicide test; assay type: in vivo, Echinochloa crus-galli
How it was run: as §3

lambsquarters = assay: Test B pre-/postemergence herbicide test; assay type: in vivo, Chenopodium album; conditions: for Lambsquarters plant response rating: postemergence
How it was run: as §5

corn = assay: Test B pre-/postemergence herbicide test; assay type: in vivo, Zea mays; conditions: for Corn plant response rating: postemergence
How it was run: as §5

barnyardgrass [11] = assay: Test B flooded paddy test; assay type: in vivo, Echinochloa crus-galli; conditions: 1000 g ai/ha, scale 0 to 100 (0 no effect, 100 complete control)
How it was run: as §1

giant foxtail [12] = assay: Test A pre-/postemergence herbicide test; assay type: in vivo, Setaria faberi
How it was run: as §3

pigweed = assay: Test B pre-/postemergence herbicide test; assay type: in vivo, Amaranthus retroflexus; conditions: for Pigweed plant response rating: postemergence
How it was run: as §5

[13] = system: small flower umbrella sedge; assay: Test B flooded paddy test; assay type: in vivo, Cyperus difformis; conditions: 1000 g ai/ha, scale 0 to 100 (0 no effect, 100 complete control)
How it was run: as §1

giant foxtail [14] = assay: Test B pre-/postemergence herbicide test; assay type: in vivo, Setaria faberi; conditions: for Foxtail, Giant plant response rating: postemergence
How it was run: as §5

[15] = 125 g ai/ha, 0 = no effect, 100 = complete control, preemergence
[16] = 500 g ai/ha, visual rating, 0 = no effect, 100 = complete control, preemergence
[17] = 125 g ai/ha, visual rating, scale 0 (no effect) to 100 (complete control)
[18] = 500 g ai/ha, scale 0 to 100, 0 is no effect, 100 is complete control
[19] = Postemergence, 500 g ai/ha, 0 to 100 scale, 0 no effect, 100 complete control
[20] = Postemergence, 2000 g ai/ha, 0 to 100 scale, 0 no effect, 100 complete control
[21] = Preemergence, 2000 g ai/ha, visual rating, 0 to 100 scale (0 no effect, 100 complete control)
[22] = preemergence, 500 g ai/ha, visual injury, 0 to 100 scale (0 no effect, 100 complete control)

Structure (SMILES): C#CCNC(=O)c1ccc(F)c(NC(=O)c2cc(C(C)(C)C)nn2CC)n1 [Compound 279]
- Ducksalad plant response rating (ducksalad): 60
- Morningglory plant response rating (0 to 100 scale) (morningglory [1]; [15]): 0
- Plant response rating, Morningglory (morningglory [1]; [16]): 0
- Morningglory plant response rating (morningglory [1]; [17]): 0
- Morningglory plant response rating (morningglory [1]; [18]): 20
- Rice plant response rating (0 to 100 scale) (rice [2]; 125 g ai/ha): 20
- Plant response rating, Rice (rice [2]; 500 g ai/ha, visual rating): 50
- Barnyardgrass plant response rating (0 to 100 scale) (barnyardgrass [3]; [15]): 20
- Plant response rating, Barnyardgrass (barnyardgrass [3]; [16]): 40
- Barnyardgrass plant response rating (barnyardgrass [3]; [17]): 0
- Barnyardgrass plant response rating (barnyardgrass [3]; [18]): 10
- Pigweed plant response rating (redroot pigweed; [19]): 70
- Plant response rating, Pigweed (redroot pigweed; [20]): 60
- Pigweed plant response rating (redroot pigweed; [21]): 100
- Pigweed plant response rating (redroot pigweed; [22]): 95
- Wheat plant response rating (wheat; [17]): 30
- Wheat plant response rating (wheat; [18]): 30
- Velvetleaf plant response rating (velvetleaf [4]; [19]): 20
- Plant response rating, Velvetleaf (velvetleaf [4]; [20]): 20
- Velvetleaf plant response rating (velvetleaf [4]; [21]): 30
- Velvetleaf plant response rating (velvetleaf [4]; [22]): 10
- Cocklebur plant response rating (0 to 100 scale) (cocklebur; [15]): 0
- Plant response rating, Cocklebur (cocklebur; [16]): 0
- Cocklebur plant response rating (cocklebur; [17]): 0
- Cocklebur plant response rating (cocklebur; [18]): 20
- Oat, Wild plant response rating (wild oat; [17]): 20
- Oat, Wild plant response rating (wild oat; [18]): 20
- Crabgrass, Large plant response rating (large crabgrass [5]; [19]): 10
- Plant response rating, Crabgrass, Large (large crabgrass [5]; [20]): 20
- Crabgrass, Large plant response rating (large crabgrass [5]; [21]): 70
- Crabgrass, Large plant response rating (large crabgrass [5]; [22]): 70
- Blackgrass plant response rating (blackgrass; [17]): 10
- Blackgrass plant response rating (blackgrass; [18]): 30
- Surinam Grass plant response rating (0 to 100 scale) (Surinam grass; [15]): 0
- Plant response rating, Surinam Grass (Surinam grass; [16]): 40
- Surinam Grass plant response rating (Surinam grass; [17]): 10
- Surinam Grass plant response rating (Surinam grass; [18]): 10
- Crabgrass, Large plant response rating (0 to 100 scale) (large crabgrass [6]; [15]): 10
- Plant response rating, Crabgrass, Large (large crabgrass [6]; [16]): 80
- Crabgrass, Large plant response rating (large crabgrass [6]; [17]): 0
- Crabgrass, Large plant response rating (large crabgrass [6]; [18]): 10
- Rice plant response rating (rice [7]): 40
- Velvetleaf plant response rating (0 to 100 scale) (velvetleaf [8]; [15]): 0
- Plant response rating, Velvetleaf (velvetleaf [8]; [16]): 20
- Velvetleaf plant response rating (velvetleaf [8]; [17]): 10
- Velvetleaf plant response rating (velvetleaf [8]; [18]): 10
- Morningglory plant response rating (morningglory [9]; [19]): 5
- Plant response rating, Morningglory (morningglory [9]; [20]): 5
- Morningglory plant response rating (morningglory [9]; [21]): 20
- Morningglory plant response rating (morningglory [9]; [22]): 10
- Barnyardgrass plant response rating (barnyardgrass [10]; [19]): 20
- Plant response rating, Barnyardgrass (barnyardgrass [10]; [20]): 40
- Barnyardgrass plant response rating (barnyardgrass [10]; [21]): 55
- Barnyardgrass plant response rating (barnyardgrass [10]; [22]): 5
- Lambsquarters plant response rating (0 to 100 scale) (lambsquarters; [15]): 100
- Plant response rating, Lambsquarters (lambsquarters; [16]): 100
- Lambsquarters plant response rating (lambsquarters; [17]): 10
- Lambsquarters plant response rating (lambsquarters; [18]): 20
- Corn plant response rating (0 to 100 scale) (corn; [15]): 0
- Plant response rating, Corn (corn; [16]): 0
- Corn plant response rating (corn; [17]): 10
- Corn plant response rating (corn; [18]): 10
- Barnyardgrass plant response rating (barnyardgrass [11]): 10
- Foxtail, Giant plant response rating (giant foxtail [12]; [19]): 10
- Plant response rating, Foxtail, Giant (giant foxtail [12]; [20]): 20
- Foxtail, Giant plant response rating (giant foxtail [12]; [21]): 60
- Foxtail, Giant plant response rating (giant foxtail [12]; [22]): 25
- Pigweed plant response rating (0 to 100 scale) (pigweed; [15]): 90
- Plant response rating, Pigweed (pigweed; [16]): 100
- Pigweed plant response rating (pigweed; [17]): 30
- Pigweed plant response rating (pigweed; [18]): 30
- Sedge, Umbrella plant response rating [13]: 60
- Foxtail, Giant plant response rating (0 to 100 scale) (giant foxtail [14]; [15]): 10
- Plant response rating, Foxtail, Giant (giant foxtail [14]; [16]): 30
- Foxtail, Giant plant response rating (giant foxtail [14]; [17]): 0
- Foxtail, Giant plant response rating (giant foxtail [14]; [18]): 0

— US20060069132A1, “Azolecarboxamide herbicides” (priority 2004, published 2006)
